# Legend:
# Type in all cases: in vivo
# [1] = system: Echinochloa crus galli; test: Glasshouse pot test, soil surface application, visual % reduction (Example 1); details: 14 DAT
# Procedure: (§1) 7×7 cm^2 pots were filled with a non-sterile loam soil. Weed seeds (Amaranthus retroflexus, Echinochloa crus galli and Setaria viridis) were placed in three separate shallow wells with a maize seed (Pioneer 3394) inserted to a depth of 4 cm in between in each pot and the seeds lightly covered with soil. A 1 ml solution of technical isoxaflutole, suitably diluted to give a dose equivalent to 6.25, 12.5, 25, 50 and 100 g/ha in acetonitrile, was pipetted evenly on the soil surface of pots (replicated 10 times), according to the following regime. On day 1, a set of 5 pots were treated with 5 dose rates (6.25-100 g/ha) and set aside in the glasshouse. At the same time, on day 1 a second set of 4 pots were with 4 dose rates (treatment A. 6.25-50 g/ha) along with a third set of 3 pots treated with 3 dose rates (treatment B: 6.25-25 g/ha). On day 2 each of the second and third pots were treated again the pots receiving identical treatments A and B and second set of pots set aside in the glasshouse. On day 3 each of the third set of pots were treated again, the pots receiving identical treatment B. On day 4 each of the third set of pots were treated, the pots receiving identical treatment B and the pots set aside in the glasshouse. The pots were maintained in a glasshouse, with overhead watering (3×daily) and supplementary lighting. Visual assessment of % reduction, compared to untreated control plants was recorded 14 days after treatment. The results (average of 10 replicates) arm shown on Table 1, where the dosing regime refers to the number of daily applications followed by the dose of compound on each day.
# [2] = system: Setaria viridis; test: as above; details: 14 DAT
# Procedure: as §1
# [3] = system: Amaranthus retroflexus; test: as above; details: 14 DAT
# Procedure: as §1
# [4] = system: Maize; test: Activity on crop after spraying on sown maize (Example 3); details: 105 g/ha, observed after 3 weeks
# Source text: (§2) Maize is sown and then grown up in area where weeds and weed seeds are present. The weeds are a selection from: Alopecurus myosuroides, Avena fatua, Digitaria sanguinalis, Echinochloa crus-galli, Eleusine indica, Lolium multiflorum, Setaria viridis, Sorghum halepense, Cyperus esculentus, Cyperus iria, Cyperus rotundus, Eleocharis acicularis, Abutilon theophrasti, Amaranthus retroflexus, Bidens pilosa, Chenopodium album, Galium aparine, Ipomgoea purpurea, Lamium purpureum, Matricaria inodora, Sesbania exalta, Sinapis arvensis, Solanum nigrum, Stellaria media, Veronica hederifolia, Veronica Persia, Viola arvensis and Xanthium strumarium.
# After one week sowing the maize, isoxazole is sprayed as an encapsulated formulation as hereinbefore described at a rate of 105 g/ha of herbicidally active compound, the weight ratio of isoxazole: copolyester being 1:10. The amounts of isoxazole of formula (I) and DKN were measured after 4 days in a 5 cm deep soil core around the seed or seedling.
# The activity of the isoxazole on the crop and weeds was observed after 3 weeks, and found to be equal to 2% and 95% respectively.
# [5] = system: weeds; test: Activity on weeds after spraying on sown maize (Example 3); details: 105 g/ha, observed after 3 weeks
# Source text: as §2, with “[…],” for “exalta,”, “[…],” for “Persia,”, “strumarium. […] The amounts of isoxazole of formula (I) and DKN were measured after 4 days in a 5 cm deep soil core around the seed or seedling. The weight ratio of isoxazole: […]” for “strumarium.”
# [6] = system: Echinochloa crus-galli; test: Sequential soil surface application on plots (Example 5); details: 14 DAT
# Source text: (§3) Maize is sown and grown up in an area where weeds and weed seedlings are present. The weeds are Amaranthus retroflexus, Echinochloa crus-galli and Setaria viridis. Solutions of isoxazole in acetonitrile were applied directly to the soil surface at dose rates of 100, 50 and 25 g/ha to plots A, B and C respectively. 1 DAT dose rates of 50 and 25 g/ha were applied to plots B and C respectively, 2 and 3 DAT a dose rate of 25 g/ha was applied to plot C.
# (§4) Activity of the isoxazole on maize and weed species was observed 14 DAT.
# [7] = system: Setaria viridis; test: as above; details: 14 DAT
# Source text: as §3, §4
# [8] = system: Amaranthus retroflexus; test: as above; details: 14 DAT
# Source text: as §3, §4
# [9] = system: Maize; test: as above; details: 14 DAT
# Source text: as §3, §4
# [10] = dosing regime 2 × 6.25 g/ha (daily applications × dose)
smiles,measurement,setting,value
"CS(=O)(=O)c1cc(C(F)(F)F)ccc1C(=O)c1cnoc1C1CC1 [isoxaflutole, 5-cyclopropyl-4-(2-methylsulphonyl-4-trifluoromethylbenzoyl)isoxazole]",% Damage Echcg,[1]; dosing regime 1 × 12.5 g/ha,0%
same,% Damage Echcg,[1]; dosing regime 1 × 25 g/ha,32%
same,% Damage Echcg,[1]; dosing regime 1 × 50 g/ha,84%
same,% Damage Echcg,[1]; dosing regime 1 × 100 g/ha,94%
same,% Damage Echcg,[1]; [10],18%
same,% Damage Echcg,[1]; dosing regime 2 × 12.5 g/ha,68%
same,% Damage Echcg,[1]; dosing regime 2 × 25 g/ha,70%
same,% Damage Echcg,[1]; dosing regime 2 × 50 g/ha,96%
same,% Damage Echcg,[1]; dosing regime 4 × 6.25 g/ha,97%
same,% Damage Echcg,[1]; dosing regime 4 × 12.5 g/ha,100%
same,% Damage Echcg,[1]; dosing regime 4 × 25 g/ha,100%
same,% Damage Setvi,[2]; dosing regime 1 × 12.5 g/ha,0%
same,% Damage Setvi,[2]; dosing regime 1 × 25 g/ha,10%
same,% Damage Setvi,[2]; dosing regime 1 × 50 g/ha,24%
same,% Damage Setvi,[2]; dosing regime 1 × 100 g/ha,59%
same,% Damage Setvi,[2]; [10],18%
same,% Damage Setvi,[2]; dosing regime 2 × 12.5 g/ha,42%
same,% Damage Setvi,[2]; dosing regime 2 × 25 g/ha,44%
same,% Damage Setvi,[2]; dosing regime 2 × 50 g/ha,66%
same,% Damage Setvi,[2]; dosing regime 4 × 6.25 g/ha,75%
same,% Damage Setvi,[2]; dosing regime 4 × 12.5 g/ha,91%
same,% Damage Setvi,[2]; dosing regime 4 × 25 g/ha,77%
same,% Damage Amare,[3]; dosing regime 1 × 12.5 g/ha,0%
same,% Damage Amare,[3]; dosing regime 1 × 25 g/ha,8%
same,% Damage Amare,[3]; dosing regime 1 × 50 g/ha,50%
same,% Damage Amare,[3]; dosing regime 1 × 100 g/ha,79%
same,% Damage Amare,[3]; [10],34%
same,% Damage Amare,[3]; dosing regime 2 × 12.5 g/ha,46%
same,% Damage Amare,[3]; dosing regime 2 × 25 g/ha,42%
same,% Damage Amare,[3]; dosing regime 2 × 50 g/ha,78%
same,% Damage Amare,[3]; dosing regime 4 × 6.25 g/ha,80%
same,% Damage Amare,[3]; dosing regime 4 × 12.5 g/ha,79%
same,% Damage Amare,[3]; dosing regime 4 × 25 g/ha,90%
CS(=O)(=O)c1cc(C(F)(F)F)ccc1C(=O)c1cnoc1C1CC1 [isoxazole],activity of the isoxazole on the crop,[4],15%
same,activity of the isoxazole on the weeds,[5],95%
same,Activity ECHCG,[6]; dosing regime 1 × 100 g/ha,94
same,Activity ECHCG,[6]; dosing regime 2 × 50 g/ha,96
same,Activity ECHCG,[6]; dosing regime 4 × 25 g/ha,100
same,Activity SETVI,[7]; dosing regime 1 × 100 g/ha,59
same,Activity SETVI,[7]; dosing regime 2 × 50 g/ha,66
same,Activity SETVI,[7]; dosing regime 4 × 25 g/ha,77
same,Activity AMARE,[8]; dosing regime 1 × 100 g/ha,79
same,Activity AMARE,[8]; dosing regime 2 × 50 g/ha,78
same,Activity AMARE,[8]; dosing regime 4 × 25 g/ha,90
same,Activity Maize,[9]; dosing regime 1 × 100 g/ha,8
same,Activity Maize,[9]; dosing regime 2 × 50 g/ha,10
same,Activity Maize,[9]; dosing regime 4 × 25 g/ha,6

# Reference: patent US6924252B1, “Weed control” (Aventis Agriculture Limited, priority 1999, dated 2005)
